According to patent publication US20240425490A1, “SULFAMIDE RIBONUCLEOTIDE REDUCTASE (RNR) INHIBITORS AND USES THEREOF” (Boundless Bio, Inc., priority 2021, published 2024):

target: T1, RNR (RNR1:RNR2 1:1) (Homo sapiens, UniProt P23921); experiment: RNR enzyme activity, rapid-fire mass spectrometry (RFMS) assay; format: biochemical; conditions: RNR 50 nM, CDP 5 μM, ATP 1 mM, 37° C., 45 min, compounds screened up to 50 μM, read-out: RF/MS IC50
T1 sequence (P23921 1-792): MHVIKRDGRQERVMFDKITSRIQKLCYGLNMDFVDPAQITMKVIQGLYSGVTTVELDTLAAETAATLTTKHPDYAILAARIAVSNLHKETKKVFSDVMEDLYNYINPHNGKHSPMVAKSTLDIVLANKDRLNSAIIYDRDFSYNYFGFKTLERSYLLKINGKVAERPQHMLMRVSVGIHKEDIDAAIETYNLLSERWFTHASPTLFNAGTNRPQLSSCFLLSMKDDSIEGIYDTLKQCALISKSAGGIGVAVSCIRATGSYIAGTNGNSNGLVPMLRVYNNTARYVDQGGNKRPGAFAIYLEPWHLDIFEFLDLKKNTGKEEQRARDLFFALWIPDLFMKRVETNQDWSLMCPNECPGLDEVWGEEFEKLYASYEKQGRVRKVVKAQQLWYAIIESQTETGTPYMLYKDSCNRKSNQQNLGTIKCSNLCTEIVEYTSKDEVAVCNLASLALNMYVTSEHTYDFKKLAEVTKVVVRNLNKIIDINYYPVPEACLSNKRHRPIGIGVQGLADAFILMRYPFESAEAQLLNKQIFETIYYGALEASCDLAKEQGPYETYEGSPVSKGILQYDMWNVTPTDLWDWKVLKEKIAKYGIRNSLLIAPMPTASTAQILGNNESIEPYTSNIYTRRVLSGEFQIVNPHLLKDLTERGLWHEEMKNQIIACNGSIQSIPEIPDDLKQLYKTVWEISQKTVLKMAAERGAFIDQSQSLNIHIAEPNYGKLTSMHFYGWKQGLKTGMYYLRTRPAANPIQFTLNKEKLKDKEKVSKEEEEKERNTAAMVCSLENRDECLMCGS
Summary of the method: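 Human RNR1:RNR2 (1:1, 50 nM) pre-incubated 15 min at room temperature with compound, then reacted with 5 μM CDP and 1 mM ATP, no NADPH, for 45 min at 37 °C. Stopped with 6% HCOOH; turnover read by rapid-fire mass spectrometry; Triapine and hydroxyurea as reference compounds.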

Molecule | IC50 [µM]
Cc1ccc(F)c([C@H](C)[C@H](NS(=O)(=O)N2CCC(c3nncn3C)CC2)c2n[nH]c(=O)o2)c1C [Example 53, N-((1S,2S)-2-(6-fluoro-2,3-dimethylphenyl)-1-(5-oxo-4,5-dihydro-1,3,4-oxadiazol-2-yl)propyl)-4-(4-methyl-4H-1,2,4-triazol-3-yl)piperidine-1-sulfonamide] | 10 to 100
Cc1ccc(F)c([C@@H](C)[C@H](NS(=O)(=O)N2CCCCC2C(=O)O)c2n[nH]c(=O)o2)c1C (stereo partly drawn) [Example 13, 1-(N-((1S,2R)-2-(6-fluoro-2,3-dimethylphenyl)-1-(5-oxo-4,5-dihydro-1,3,4-oxadiazol-2-yl)propyl)sulfamoyl)piperidine-2-carboxylic acid] | 10 to 100
4-(3-azabicyclo[3.1.0]hexan-3-yl)-N-((1S,2R)-2-(6-fluoro-2,3-dimethylphenyl)-1-(5-oxo-4,5-dihydro-1,3,4-oxadiazol-2-yl)propyl)piperidine-1-sulfonamide [Example 105] | 1 to 10
Cc1ccc(F)c(C(C)[C@H](NS(=O)(=O)N2CCCC(C(C)C)C2)c2n[nH]c(=O)o2)c1C (stereo partly drawn) [Example 24, N-((1S)-2-(6-fluoro-2,3-dimethylphenyl)-1-(5-oxo-4,5-dihydro-1,3,4-oxadiazol-2-yl)propyl)-3-isopropylpiperidine-1-sulfonamide] | 0.1 to 1
Cc1ccc(F)c(C(C)[C@H](NS(=O)(=O)N2CCC(CN(C)C)CC2)c2n[nH]c(=O)o2)c1C (stereo partly drawn) [Example 31, 4-((dimethylamino)methyl)-N-((1S)-2-(6-fluoro-2,3-dimethylphenyl)-1-(5-oxo-4,5-dihydro-1,3,4-oxadiazol-2-yl)propyl)piperidine-1-sulfonamide] | 10 to 100
COCC1CCCN(S(=O)(=O)N[C@H](c2n[nH]c(=O)o2)[C@@H](C)c2c(F)ccc(C)c2C)C1 (stereo partly drawn) [Example 130, N-((1S,2S)-2-(6-fluoro-2,3-dimethylphenyl)-1-(5-oxo-4,5-dihydro-1,3,4-oxadiazol-2-yl)propyl)-3-(methoxymethyl)piperidine-1-sulfonamide] | 1 to 10
Cc1ccc(F)c([C@@H](C)[C@H](NS(=O)(=O)N2CCCCC2c2ccccc2)c2n[nH]c(=O)o2)c1C (stereo partly drawn) [Example 35, N-((1S,2R)-2-(6-fluoro-2,3-dimethylphenyl)-1-(5-oxo-4,5-dihydro-1,3,4-oxadiazol-2-yl)propyl)-2-phenylpiperidine-1-sulfonamide] | 1 to 10
Cc1ccc(F)c([C@@H](C)[C@H](NS(=O)(=O)N2C[C@H]3CCC[C@H]3C2)c2n[nH]c(=O)o2)c1C [Example 4, (3aR,6aS)-N-((1S,2R)-2-(6-Fluoro-2,3-dimethylphenyl)-1-(5-oxo-4,5-dihydro-1,3,4-oxadiazol-2-yl)propyl)hexahydrocyclopenta[c]pyrrole-2(1H)-sulfonamide] | 0.1 to 1
Cc1ccc(F)c(C(C)[C@H](NS(=O)(=O)N2CCC(c3ncc[nH]3)CC2)c2n[nH]c(=O)o2)c1C (stereo partly drawn) [Example 90, N-((1S)-2-(6-fluoro-2,3-dimethylphenyl)-1-(5-oxo-4,5-dihydro-1,3,4-oxadiazol-2-yl)propyl)-4-(1H-imidazol-2-yl)piperidine-1-sulfonamide] | 1 to 10
Cc1ccc(F)c([C@@H](C)[C@H](NS(=O)(=O)N2CCC(C3CCCCC3)CC2)c2n[nH]c(=O)o2)c1C [Example 9, 4-cyclohexyl-N-((1S,2R)-2-(6-fluoro-2,3-dimethylphenyl)-1-(5-oxo-4,5-dihydro-1,3,4-oxadiazol-2-yl)propyl)piperidine-1-sulfonamide] | 10 to 100
Cc1ccc(F)c([C@H](C)[C@H](NS(=O)(=O)N2CCC(Oc3ccccc3)CC2)c2n[nH]c(=O)o2)c1C [Example 54, N-((1S,2S)-2-(6-fluoro-2,3-dimethylphenyl)-1-(5-oxo-4,5-dihydro-1,3,4-oxadiazol-2-yl)propyl)-4-phenoxypiperidine-1-sulfonamide] | 10 to 100

The next lines start with the values.

IC50 [µM] | Molecule
0.1 to 1 | Cc1ccc(F)c([C@H](C)[C@H](NS(=O)(=O)N2CCC3(CC2)OCCO3)c2n[nH]c(=O)o2)c1C [Example 134, N-((1S,2S)-2-(6-fluoro-2,3-dimethylphenyl)-1-(5-oxo-4,5-dihydro-1,3,4-oxadiazol-2-yl)propyl)-1,4-dioxa-8-azaspiro[4.5]decane-8-sulfonamide]
0.1 to 1 | Cc1ccc(F)c([C@@H](C)[C@H](NS(=O)(=O)N2CCC3(CC2)CC(F)(F)C3)c2n[nH]c(=O)o2)c1C [Example 94, 2,2-difluoro-N-((1S,2R)-2-(6-fluoro-2,3-dimethylphenyl)-1-(5-oxo-4,5-dihydro-1,3,4-oxadiazol-2-yl)propyl)-7-azaspiro[3.5]nonane-7-sulfonamide]
10 to 100 | C#CC1CCN(S(=O)(=O)N[C@H](c2n[nH]c(=O)o2)[C@@H](C)c2c(F)ccc(C)c2C)CC1 [Example 47, 4-ethynyl-N-((1S,2S)-2-(6-fluoro-2,3-dimethylphenyl)-1-(5-oxo-4,5-dihydro-1,3,4-oxadiazol-2-yl)propyl)piperidine-1-sulfonamide]
0.1 to 1 | Cc1ccc(F)c(C(C)[C@H](NS(=O)(=O)N2CCCCC2)c2n[nH]c(=O)o2)c1C (stereo partly drawn) [Example 138, N-((1S)-2-(6-fluoro-2,3-dimethylphenyl)-1-(5-oxo-4,5-dihydro-1,3,4-oxadiazol-2-yl)propyl)piperidine-1-sulfonamide]
10 to 100 | Cc1ccc(F)c(C(C)[C@H](NS(=O)(=O)N2CCC(F)(F)C2)c2n[nH]c(=O)o2)c1C (stereo partly drawn) [Example 137, 3,3-difluoro-N-((1S)-2-(6-fluoro-2,3-dimethylphenyl)-1-(5-oxo-4,5-dihydro-1,3,4-oxadiazol-2-yl)propyl)pyrrolidine-1-sulfonamide]
1 to 10 | Cc1ccc(F)c(C(C)[C@H](NS(=O)(=O)N2CCC3(CCC(=O)N3C)CC2)c2n[nH]c(=O)o2)c1C (stereo partly drawn) [Example 93, N-((1S)-2-(6-fluoro-2,3-dimethylphenyl)-1-(5-oxo-4,5-dihydro-1,3,4-oxadiazol-2-yl)propyl)-1-methyl-2-oxo-1,8-diazaspiro[4.5]decane-8-sulfonamide]
1 to 10 | CNC(=O)C1CCN(S(=O)(=O)N[C@H](c2n[nH]c(=O)o2)[C@H](C)c2c(F)ccc(C)c2C)CC1 [Example 57, 1-(N-((1S,2R)-2-(6-fluoro-2,3-dimethylphenyl)-1-(5-oxo-4,5-dihydro-1,3,4-oxadiazol-2-yl)propyl)sulfamoyl)-N-methylpiperidine-4-carboxamide]
1 to 10 | Cc1ccc(F)c([C@H](C)[C@H](NS(=O)(=O)N2CCC(Cl)CC2)c2n[nH]c(=O)o2)c1C [Example 6, 4-chloro-N-((1S,2S)-2-(6-fluoro-2,3-dimethylphenyl)-1-(5-oxo-4,5-dihydro-1,3,4-oxadiazol-2-yl)propyl)piperidine-1-sulfonamide]
0.1 to 1 | Cc1ccc(F)c(C(C)[C@H](NS(=O)(=O)N2CCC(CN3CCCC3=O)CC2)c2n[nH]c(=O)o2)c1C (stereo partly drawn) [Example 65, N-((1S)-2-(6-fluoro-2,3-dimethylphenyl)-1-(5-oxo-4,5-dihydro-1,3,4-oxadiazol-2-yl)propyl)-4-((2-oxopyrrolidin-1-yl)methyl)piperidine-1-sulfonamide]
1 to 10 | Cc1ccc(F)c([C@H](C)[C@H](NS(=O)(=O)N2CCC(C)(C#N)CC2)c2n[nH]c(=O)o2)c1C [Example 82, 4-cyano-N-((1S,2S)-2-(6-fluoro-2,3-dimethylphenyl)-1-(5-oxo-4,5-dihydro-1,3,4-oxadiazol-2-yl)propyl)-4-methylpiperidine-1-sulfonamide]
